In one test the target is T1, S1P3 (Homo sapiens, UniProt Q99500).
T1 construct: expressed in transfected cells
Briefly: FLIPR calcium assay, cells expressing S1P3 and a G-protein. The class given is cell-based. The protocol: (§1) After removal of excess dye by washing, the cells are placed in the FLIPR TETRA instrument. Baseline fluorescence readings are taken prior to addition the compound to be tested. Agonists will trigger the receptor to interact with the G-protein, leading to an increase in intracellular calcium. The increase in intracellular calcium causes an increase in the fluorescence of the cells, due to the presence of fluo-4. This fluorescence increase is recorded by the FLIPR TETRA. After the calcium transient signal has decreased towards baseline, the standard agonist sphingosine 1-phosphate is added. If the test compound is an antagonist, an initial calcium signal will not be generated and the antagonist will prevent the generation of a calcium signal from sphingosine 1-phosphate.

Another test has as its target T2, S1P1 (Homo sapiens, UniProt P21453).
T2 construct: expressed in transfected cells
As to the kind of experiment: FLIPR calcium assay, cells expressing S1P1 and a G-protein. The class given is cell-based. The protocol:
as §1

In test [1] the target is T3, S1P2 (Homo sapiens, UniProt O95136). Briefly: S1P2 values marked (33P S1P). The class given is binding. As to conditions: value marked (33P S1P).
In test [2] the target is T3, S1P2. Briefly: FLIPR calcium assay, cells expressing S1P2 and a G-protein. The class given is cell-based. Particulars: for FLIPR (% Antagonism) S1P2: antagonism versus sphingosine 1-phosphate. The protocol:
as §1

T2 sequence (P21453 whole entry, species assumed): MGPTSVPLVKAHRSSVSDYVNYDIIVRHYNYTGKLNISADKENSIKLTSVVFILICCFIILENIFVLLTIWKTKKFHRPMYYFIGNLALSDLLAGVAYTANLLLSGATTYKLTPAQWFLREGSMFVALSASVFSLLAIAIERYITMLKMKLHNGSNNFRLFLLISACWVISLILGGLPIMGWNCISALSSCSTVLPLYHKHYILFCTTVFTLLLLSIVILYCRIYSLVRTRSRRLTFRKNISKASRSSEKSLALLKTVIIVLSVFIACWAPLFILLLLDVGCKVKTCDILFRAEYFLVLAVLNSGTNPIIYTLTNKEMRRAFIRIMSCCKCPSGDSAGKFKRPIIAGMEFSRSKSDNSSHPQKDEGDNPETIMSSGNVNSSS
T1 sequence (Q99500 whole entry, species assumed): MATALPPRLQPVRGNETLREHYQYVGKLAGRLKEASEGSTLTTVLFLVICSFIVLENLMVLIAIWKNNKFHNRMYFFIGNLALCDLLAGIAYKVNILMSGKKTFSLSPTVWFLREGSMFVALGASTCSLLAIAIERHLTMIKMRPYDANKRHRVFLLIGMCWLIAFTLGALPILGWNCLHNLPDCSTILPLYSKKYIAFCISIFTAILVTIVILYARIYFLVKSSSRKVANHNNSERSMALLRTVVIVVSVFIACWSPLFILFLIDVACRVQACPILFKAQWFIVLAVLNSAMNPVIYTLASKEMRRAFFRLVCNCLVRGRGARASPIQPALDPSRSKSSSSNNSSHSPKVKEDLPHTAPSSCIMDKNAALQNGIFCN
T3 sequence (O95136 whole entry, species assumed): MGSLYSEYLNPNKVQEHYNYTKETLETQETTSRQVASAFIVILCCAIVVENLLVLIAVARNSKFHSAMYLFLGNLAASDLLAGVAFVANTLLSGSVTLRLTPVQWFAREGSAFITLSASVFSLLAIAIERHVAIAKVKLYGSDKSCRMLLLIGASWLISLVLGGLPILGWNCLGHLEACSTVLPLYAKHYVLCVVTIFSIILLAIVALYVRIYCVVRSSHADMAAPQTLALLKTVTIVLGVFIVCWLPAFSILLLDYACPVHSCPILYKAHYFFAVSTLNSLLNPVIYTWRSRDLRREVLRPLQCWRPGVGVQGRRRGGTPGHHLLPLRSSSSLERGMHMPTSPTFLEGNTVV

As for “1-(2-chloro-6-propoxypyridin-4-yl)-3-((7-isopropyl-1,3-dimethyl-1H-pyrazolo[4,3-b]pyridin-5-yl)methyl)urea [Example 14]”, the EC50 is more than 8300 nM on S1P3, more than 8300 nM at S1P1 and 0.5 nM at S1P2 [1].
Take `Cc1nn(C)c2c(C(C)C)cc(NNC(=O)Nc3cc(Cl)cc(Cl)c3)nc12` [Example 1, N-(3,5-dichlorophenyl)-2-(7-isopropyl-1,3-dimethyl-1H-pyrazolo[4,3-b]pyridin-5-yl)hydrazinecarboxamide]: the 50% effective concentration (EC50) on S1P3 is more than 8300 nM; on S1P1, more than 8300 nM; at S1P2 [1] it was 2.9 nM; at S1P2 [2], 47 nM. Further, the “FLIPR (% Antagonism) S1P2” value on S1P2 [2] is “(96) %”.
With `Cc1nn(C)c2c(C(C)C)cc(CNC(=O)Nc3cc(Cl)nc(Cl)c3)nc12` [Example 2, 1-(2,6-dichloropyridin-4-yl)-3-((7-isopropyl-1,3-dimethyl-1H-pyrazolo[4,3-b]pyridin-5-yl)methyl)urea], the EC50 at S1P3 was more than 8300 nM; at S1P1 it was more than 8300 nM; on S1P2 [1], 23.8 nM; at S1P2 [2] it was 118 nM. Moreover, the “FLIPR (% Antagonism) S1P2” value on S1P2 [2] was “(91) %”.
Take `CCCCc1cc(NC(=O)NNc2cc(C(C)C)c3c(n2)c(C)nn3C)cc(Cl)n1` [Example 3, N-(2-butyl-6-chloropyridin-4-yl)-2-(7-isopropyl-1,3-dimethyl-1H-pyrazolo[4,3-b]pyridin-5-yl)hydrazinecarboxamide]: the EC50 on S1P3 is more than 8300 nM; at S1P1 it was more than 8300 nM; at S1P2 [1], 5.7 nM; at S1P2 [2] it was 8 nM. In addition, the “FLIPR (% Antagonism) S1P2” value on S1P2 [2] is given as “(99) %”.
For `CCOc1cc(NC(=O)NNc2cc(C(C)C)c3c(n2)c(C)nn3C)cc(Cl)n1` [Example 4, N-(2-chloro-6-ethoxypyridin-4-yl)-2-(7-isopropyl-1,3-dimethyl-1H-pyrazolo[4,3-b]pyridin-5-yl)hydrazinecarboxamide], the figures for the EC50 on S1P3, on S1P1 and at S1P2 [1] were more than 8300 nM, more than 8300 nM and 1.5 nM, respectively.
As for `Cc1nn(C)c2c(C)cc(CNC(=O)Nc3cc(Cl)cc(Cl)c3)nc12` [Example 5, 1-(3,5-dichlorophenyl)-3-((1,3,7-trimethyl-1H-pyrazolo[4,3-b]pyridin-5-yl)methyl)urea], the EC50 at S1P3 is more than 8300 nM; at S1P1, more than 8300 nM; at S1P2 [2] it was 135 nM. Besides, at S1P2 [2], the “FLIPR (% Antagonism) S1P2” value is recorded as “(82) %”.
With `Cc1nn(C)c2c(C(C)C)cc(NNC(=O)Nc3cc(Cl)nc(Cl)c3)nc12` [Example 6, N-(2,6-dichloropyridin-4-yl)-2-(7-isopropyl-1,3-dimethyl-1H-pyrazolo[4,3-b]pyridin-5-yl)hydrazinecarboxamide], the EC50 was more than 8300 nM on S1P3, more than 8300 nM at S1P1, 2.2 nM at S1P2 [1] and 11 nM at S1P2 [2]. Besides, the “FLIPR (% Antagonism) S1P2” value on S1P2 [2] is “(95) %”.
`Cc1nn(C)c2c(C(C)C)cc(NNC(=O)Nc3cc(C(F)(F)F)cc(C(F)(F)F)c3)nc12` [Example 7, N-(3,5-bis(trifluoromethyl)phenyl)-2-(7-isopropyl-1,3-dimethyl-1H-pyrazolo[4,3-b]pyridin-5-yl)hydrazinecarboxamide]: the EC50 on S1P3 was more than 8300 nM; on S1P1, more than 8300 nM; on S1P2 [2], 196 nM. The “FLIPR (% Antagonism) S1P2” value on S1P2 [2] is listed as “(98) %”.
Consider `Cc1nn(C)c2c(C(C)C)cc(CNC(=O)Nc3cc(Cl)cc(Cl)c3)nc12` [Example 9], for which the concentration for a half-maximal effect (EC50) at S1P3 is more than 8300 nM; at S1P1 it was more than 8300 nM; on S1P2 [1], 26.4 nM; at S1P2 [2], 149 nM. Also, the “FLIPR (% Antagonism) S1P2” value on S1P2 [2] was “(52) %”.
On to `COc1cc(NC(=O)NCc2cc(C(C)C)c3c(n2)c(C)nn3C)cc(Cl)n1` [Example 10, 1-(2-chloro-6-methoxypyridin-4-yl)-3-((7-isopropyl-1,3-dimethyl-1H-pyrazolo[4,3-b]pyridin-5-yl)methyl)urea], for which the EC50 at S1P3 is more than 8300 nM; at S1P1, more than 8300 nM; at S1P2 [1], 9.9 nM; at S1P2 [2], 58 nM. The “FLIPR (% Antagonism) S1P2” value on S1P2 [2] is on record as “(98) %”.
`CCCc1cc(NC(=O)NNc2cc(C(C)C)c3c(n2)c(C)nn3C)cc(Cl)n1` [Example 11, N-(2-chloro-6-propylpyridin-4-yl)-2-(7-isopropyl-1,3-dimethyl-1H-pyrazolo[4,3-b]pyridin-5-yl)hydrazinecarboxamide]: the half-maximal effective concentration (EC50) on S1P3 is more than 8300 nM; at S1P1 it was more than 8300 nM; on S1P2 [1], 5 nM; on S1P2 [2], 9 nM. Moreover, at S1P2 [2], the “FLIPR (% Antagonism) S1P2” value was “(98) %”.
As to `CCOc1cc(NC(=O)NCc2cc(C(C)C)c3c(n2)c(C)nn3C)cc(Cl)n1` [Example 13, 1-(2-chloro-6-ethoxypyridin-4-yl)-3-((7-isopropyl-1,3-dimethyl-1H-pyrazolo[4,3-b]pyridin-5-yl)methyl)urea], the EC50 on S1P3 is more than 8300 nM; on S1P1 it was more than 8300 nM; on S1P2 [1] it was 0.5 nM.
In the case of `CCCOc1cc(NC(=O)NNc2cc(C(C)C)c3c(n2)c(C)nn3C)cc(Cl)n1` [Example 15, N-(2-chloro-6-propoxypyridin-4-yl)-2-(7-isopropyl-1,3-dimethyl-1H-pyrazolo[4,3-b]pyridin-5-yl)hydrazinecarboxamide], the EC50 was more than 8300 nM on S1P3, more than 8300 nM at S1P1 and 0.2 nM on S1P2 [1].
`CCCCOc1cc(NC(=O)NNc2cc(C(C)C)c3c(n2)c(C)nn3C)cc(Cl)n1` [Example 16, N-(2-butoxy-6-chloropyridin-4-yl)-2-(7-isopropyl-1,3-dimethyl-1H-pyrazolo[4,3-b]pyridin-5-yl)hydrazinecarboxamide]: the EC50 on S1P3 is more than 8300 nM; on S1P1, more than 8300 nM; at S1P2 [1] it was 0.1 nM.
`CCCCOc1cc(NC(=O)NCc2cc(C(C)C)c3c(n2)c(C)nn3C)cc(Cl)n1` [Example 17, 1-(2-butoxy-6-chloropyridin-4-yl)-3-((7-isopropyl-1,3-dimethyl-1H-pyrazolo[4,3-b]pyridin-5-yl)methyl)urea]: the EC50 on S1P3 is more than 8300 nM; on S1P1, more than 8300 nM; on S1P2 [1] it was 0.1 nM.
With `CCOc1cc(NC(=O)NNc2cc(C(C)C)c3c(n2)c(C)nn3C)ccn1` [Example 18, N-(2-ethoxypyridin-4-yl)-2-(7-isopropyl-1,3-dimethyl-1H-pyrazolo[4,3-b]pyridin-5-yl)hydrazinecarboxamide], the EC50 at S1P3 was more than 8300 nM; at S1P1, more than 8300 nM; on S1P2 [1] it was 266 nM.
Regarding `COc1cc(OC)c(NC(=O)NNc2cc(C(C)C)c3c(n2)c(C)nn3C)cc1Cl` [Example 19, N-(5-chloro-2,4-dimethoxyphenyl)-2-(7-isopropyl-1,3-dimethyl-1H-pyrazolo[4,3-b]pyridin-5-yl)hydrazinecarboxamide], the results for the EC50 on S1P3, at S1P1 and at S1P2 [1] were more than 8300 nM, more than 8300 nM and 40 nM, respectively.
In the case of `Cc1cc(NNC(=O)Nc2cc(Cl)cc(Cl)c2)nc2ncccc12` [Example 20, N-(3,5-dichlorophenyl)-2-(4-methyl-1,8-naphthyridin-2-yl)hydrazinecarboxamide], the EC50 was more than 8300 nM on S1P3, more than 8300 nM on S1P1 and 196 nM on S1P2 [1].
Regarding `CC(C)c1cc(NNC(=O)Nc2cc(Cl)cc(Cl)c2)nc2ncccc12` [Example 21, N-(3,5-dichlorophenyl)-2-(4-isopropyl-1,8-naphthyridin-2-yl)hydrazinecarboxamide], the figures for the EC50 at S1P3, at S1P1 and at S1P2 [1] were more than 8300 nM, more than 8300 nM and 81 nM, respectively.
Take `Cc1ccc(C)c2c(C(C)C)cc(NNC(=O)Nc3cc(Cl)cc(Cl)c3)nc12` [Example 22, N-(3,5-dichlorophenyl)-2-(4-isopropyl-5,8-dimethylquinolin-2-yl)hydrazinecarboxamide]: the EC50 is more than 8300 nM at S1P3, more than 8300 nM on S1P1 and 199 nM at S1P2 [1].
Take `CC(C)c1cc(NNC(=O)Nc2cc(Cl)cc(Cl)c2)nc2ccccc12` [Example 23, N-(3,5-dichlorophenyl)-2-(4-isopropylquinolin-2-yl)hydrazinecarboxamide]: the EC50 on S1P3 was more than 8300 nM; on S1P1, more than 8300 nM; at S1P2 [1], 188 nM.
For `Cc1cc(NNC(=O)Nc2cc(Cl)nc(Cl)c2)nc2c(C)cccc12` [Example 24, N-(2,6-dichloropyridin-4-yl)-2-(4,8-dimethylquinolin-2-yl)hydrazinecarboxamide], the EC50 was more than 8300 nM on S1P3, more than 8300 nM at S1P1 and 390 nM at S1P2 [1].
Consider `Cc1cc(NNC(=O)Nc2cc(Cl)cc(Cl)c2)nc2c(C)cccc12` [Example 25, N-(3,5-dichlorophenyl)-2-(4,8-dimethylquinolin-2-yl)hydrazinecarboxamide], for which the values for the EC50 at S1P3, at S1P1 and at S1P2 [1] were more than 8300 nM, more than 8300 nM and 451 nM, respectively.
Consider `Cc1cc(NNC(=O)Nc2cc(Cl)nc(Cl)c2)nc2ccccc12` [Example 26, N-(2,6-dichloropyridin-4-yl)-2-(4-methylquinolin-2-yl)hydrazinecarboxamide], for which the EC50 on S1P3 is more than 8300 nM; on S1P1 it was more than 8300 nM; at S1P2 [1] it was 196 nM.
Consider `Cc1ccc(C)c2c(C)cc(NNC(=O)Nc3cc(Cl)cc(Cl)c3)nc12` [Example 27, N-(3,5-dichlorophenyl)-2-(4,5,8-trimethylquinolin-2-yl)hydrazinecarboxamide], for which the EC50 on S1P3 was more than 8300 nM; at S1P1, more than 8300 nM; on S1P2 [1], 386 nM.

The values are drawn from US8703797B2, “Condensed ring pyridine compounds as subtype-selective modulators of sphingosine-1-phosphate-2 (S1P2) receptors” (Allergan, Inc., priority 2009, dated 2014).
